US20260166128A1, “HUMAN AMYLIN ANALOG, AND DERIVATIVE THEREOF AND USE THEREOF” (priority 2022, published 2026)
pEC50: −log10 of the molar value. Numbered stars: 1 amine (or outer) side, 2 acyl side, 3 side chain; on linkers, the order of the positions; unused ones are H or OH. Bridge positions count the residues as written; N and C are the ends. Square brackets hold non-standard residues; d marks the D form. Side chains are listed from the residue outwards. Peptide text beside a SMILES is read from it. * marks the point of attachment. C20 diacid = O=C(O)CCCCCCCCCCCCCCCCCCC(=O)*; C18 diacid = O=C(O)CCCCCCCCCCCCCCCCC(=O)*; γGlu = O=C(O)[C@H](CCC(=O)[*:2])N[*:1]; Hyp = O=C(O)[C@@H]1C[C@@H](O)CN1; AEEA = NCCOCCOCC(=O)O

Key:
human amylin receptor = target: T1, human amylin receptor (Homo sapiens, UniProt O60896+P30988); test: Luciferase assay of amylin derivatives in amylin receptor/CRE-luc CHO cell line; format: cell-based; settings: CHO-K1/Ga15/AMY3 CRE-luc cells, 24 hours incubation, F12 medium containing 10% FBS; read-out: EC50
T1 construct: host or cells: CHO-K1/Ga15/AMY3 cells, further stably transfected with a CRE-luciferase plasmid
T1 sequence (P30988 25-474): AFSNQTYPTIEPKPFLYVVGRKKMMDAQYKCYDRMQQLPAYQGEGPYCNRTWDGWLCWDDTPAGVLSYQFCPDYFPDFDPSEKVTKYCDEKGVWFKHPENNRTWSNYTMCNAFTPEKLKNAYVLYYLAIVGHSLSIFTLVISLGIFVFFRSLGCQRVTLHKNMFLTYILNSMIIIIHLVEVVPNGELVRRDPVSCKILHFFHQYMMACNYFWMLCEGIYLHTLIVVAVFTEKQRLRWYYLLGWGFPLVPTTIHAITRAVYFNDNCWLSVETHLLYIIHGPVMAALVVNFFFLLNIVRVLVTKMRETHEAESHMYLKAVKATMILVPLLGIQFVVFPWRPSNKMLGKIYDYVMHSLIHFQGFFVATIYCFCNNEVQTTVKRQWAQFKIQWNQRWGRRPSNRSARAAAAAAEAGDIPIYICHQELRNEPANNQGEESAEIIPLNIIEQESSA
T1 sequence (O60896 24-148 partner): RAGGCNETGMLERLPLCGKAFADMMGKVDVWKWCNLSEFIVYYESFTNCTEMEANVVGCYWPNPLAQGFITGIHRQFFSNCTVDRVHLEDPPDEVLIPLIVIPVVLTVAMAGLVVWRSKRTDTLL
Protocol: The experiment was intended to detect the activity or efficacy of the amylin derivatives on a human amylin receptor in vitro by luciferase assay.
50 μL of growth medium (F12 medium containing 10% FBS) was added into each well of a white 96-well plate, and the stably transfected amylin/CRE-lue CHO cells were inoculated into the white 96-well plate at a density of about 20,000 cells/well for activity determination.

[1] = Freeze-thaw stability of derivatives (freeze-thaw yield by liquid chromatography); format: physicochemical; settings: for Dissolution property: appearance after dissolution at 0.2 mg/ml in 20 mM phosphate buffer solution (PB) (pH 7.0); for Freeze storage property: appearance after overnight storage at −20° C. and thawing to room temperature, 0.2 mg/ml in 20 mM PB (pH 7.0); for Freeze storage yield: concentration of polypeptide after freezing and thawing / concentration before, by liquid chromatography, −20° C. overnight
Method in brief: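 Lyophilised peptide derivative dissolved at 0.2 mg/ml in 20 mM phosphate buffer, pH 7.0, frozen overnight at −20° C, then thawed at room temperature. Peptide concentration before and after freeze-thaw measured by reversed-phase HPLC on centrifuged supernatant; yield = post-thaw/pre-thaw concentration.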

| pEC50 (human amylin receptor) | Dissolution property [1] | Freeze storage property [1] | Freeze storage yield [1] [%] | SMILES |
| --- | --- | --- | --- | --- |
| 10.36 | Clear | Clear | 93.44 | CC[C@H](C)[C@H](NC(=O)[C@@H]1CCCN1C(=O)CNC(=O)[C@H](Cc1ccccc1)NC(=O)[C@H](CC(N)=O)NC(=O)[C@H](CC(N)=O)NC(=O)[C@H](CO)NC(=O)[C@H](CO)NC(=O)[C@H](Cc1c[nH]cn1)NC(=O)[C@H](CCCNC(=N)N)NC(=O)[C@H](CC(C)C)NC(=O)[C@H](Cc1ccccc1)NC(=O)[C@H](CCC(=O)O)NC(=O)[C@H](C)NC(=O)[C@H](CC(C)C)NC(=O)[C@H](CCCNC(=N)N)NC(=O)[C@H](CCC(N)=O)NC(=O)[C@@H](NC(=O)[C@H](C)NC(=O)[C@@H]1CSSC[C@H](NC(=O)[C@@H](N)CCCCNC(=O)CC[C@H](NC(=O)CCCCCCCCCCCCCCCCCCC(=O)O)C(=O)O)C(=O)N[C@@H](CC(N)=O)C(=O)N[C@@H]([C@@H](C)O)C(=O)N[C@@H](C)C(=O)N[C@@H]([C@@H](C)O)C(=O)N1)[C@@H](C)O)C(=O)N[C@@H](CC(C)C)C(=O)N1CCC[C@H]1C(=O)N1CCC[C@H]1C(=O)N[C@H](C(=O)N[C@@H](CC(N)=O)C(=O)N[C@H](C(=O)NCC(=O)N[C@@H](CO)C(=O)N[C@@H](CC(N)=O)C(=O)N[C@H](C(=O)N1CCC[C@H]1C(N)=O)[C@@H](C)O)C(C)C)[C@@H](C)O [PD066] |
| 10.47 | Clear | Clear | 98.84 | CC[C@H](C)[C@H](NC(=O)[C@@H]1CCCN1C(=O)CNC(=O)[C@H](Cc1ccccc1)NC(=O)[C@H](CC(N)=O)NC(=O)[C@H](CC(N)=O)NC(=O)[C@H](CO)NC(=O)[C@H](CO)NC(=O)[C@H](Cc1c[nH]cn1)NC(=O)[C@H](CCCNC(=N)N)NC(=O)[C@H](CC(C)C)NC(=O)[C@H](Cc1ccccc1)NC(=O)[C@H](CC(=O)O)NC(=O)[C@H](C)NC(=O)[C@H](CC(C)C)NC(=O)[C@H](CCCNC(=N)N)NC(=O)[C@H](CCC(N)=O)NC(=O)[C@@H](NC(=O)[C@H](C)NC(=O)[C@@H]1CSSC[C@H](NC(=O)[C@H](CCCCN)NC(=O)CC[C@H](NC(=O)CCCCCCCCCCCCCCCCCCC(=O)O)C(=O)O)C(=O)N[C@@H](CC(N)=O)C(=O)N[C@@H]([C@@H](C)O)C(=O)N[C@@H](C)C(=O)N[C@@H]([C@@H](C)O)C(=O)N1)[C@@H](C)O)C(=O)N[C@@H](CC(C)C)C(=O)N1CCC[C@H]1C(=O)N1CCC[C@H]1C(=O)N[C@H](C(=O)N[C@@H](CC(N)=O)C(=O)N[C@H](C(=O)NCC(=O)N[C@@H](CO)C(=O)N[C@@H](CC(N)=O)C(=O)N[C@H](C(=O)N1C[C@H](O)C[C@H]1C(N)=O)[C@@H](C)O)C(C)C)[C@@H](C)O [PD067] ({C20 diacid-γGlu}-KCNTATCATQRLADFLRHSSNNFGPILPPTNVGSNT[Hyp]-NH2; disulfide 2-7 (inferred)) |
| 10.49 | Clear | Clear | 102.65 | CC[C@H](C)[C@H](NC(=O)[C@@H]1CCCN1C(=O)CNC(=O)[C@H](CC(C)C)NC(=O)[C@H](CCCCNC(=O)COCCOCCNC(=O)COCCOCCNC(=O)CC[C@H](NC(=O)CCCCCCCCCCCCCCCCCCC(=O)O)C(=O)O)NC(=O)[C@H](CC(N)=O)NC(=O)[C@H](CO)NC(=O)[C@H](CO)NC(=O)[C@H](Cc1c[nH]cn1)NC(=O)[C@H](CCCNC(=N)N)NC(=O)[C@H](CC(C)C)NC(=O)[C@H](Cc1ccccc1)NC(=O)[C@H](CC(=O)O)NC(=O)[C@H](C)NC(=O)[C@H](CC(C)C)NC(=O)[C@H](CCCNC(=N)N)NC(=O)[C@H](CCC(N)=O)NC(=O)[C@@H](NC(=O)[C@H](C)NC(=O)[C@@H]1CSSC[C@H](NC(=O)[C@@H](N)CCCNC(=N)N)C(=O)N[C@@H](CC(N)=O)C(=O)N[C@@H]([C@@H](C)O)C(=O)N[C@@H](C)C(=O)N[C@@H]([C@@H](C)O)C(=O)N1)[C@@H](C)O)C(=O)N[C@@H](CC(C)C)C(=O)N1CCC[C@H]1C(=O)N1CCC[C@H]1C(=O)N[C@H](C(=O)N[C@@H](CC(N)=O)C(=O)N[C@H](C(=O)NCC(=O)N[C@@H](CO)C(=O)N[C@@H](CC(N)=O)C(=O)N[C@H](C(=O)N1C[C@H](O)C[C@H]1C(N)=O)[C@@H](C)O)C(C)C)[C@@H](C)O [PD087] (H-RCNTATCATQRLADFLRHSSNK([AEEA-AEEA-γGlu-C20 diacid])LGPILPPTNVGSNT[Hyp]-NH2; disulfide 2-7 (inferred); N-terminus assumed) |
| 10.89 | Clear | Clear | 120.04 | CC[C@H](C)[C@H](NC(=O)[C@@H]1CCCN1C(=O)CNC(=O)[C@H](CC(C)C)NC(=O)[C@H](CCCCNC(=O)CC[C@H](NC(=O)CCCCCCCCCCCCCCCCC(=O)O)C(=O)O)NC(=O)[C@H](CC(N)=O)NC(=O)[C@H](CO)NC(=O)[C@H](CO)NC(=O)[C@H](Cc1c[nH]cn1)NC(=O)[C@H](CCCNC(=N)N)NC(=O)[C@H](CC(C)C)NC(=O)[C@H](Cc1ccccc1)NC(=O)[C@H](CC(=O)O)NC(=O)[C@H](C)NC(=O)[C@H](CC(C)C)NC(=O)[C@H](CCCNC(=N)N)NC(=O)[C@H](CCC(N)=O)NC(=O)[C@@H](NC(=O)[C@H](C)NC(=O)[C@@H]1CSSC[C@H](NC(=O)[C@@H](N)CCCNC(=N)N)C(=O)N[C@@H](CC(N)=O)C(=O)N[C@@H]([C@@H](C)O)C(=O)N[C@@H](C)C(=O)N[C@@H]([C@@H](C)O)C(=O)N1)[C@@H](C)O)C(=O)N[C@@H](CC(C)C)C(=O)N1CCC[C@H]1C(=O)N1CCC[C@H]1C(=O)N[C@H](C(=O)N[C@@H](CC(N)=O)C(=O)N[C@H](C(=O)NCC(=O)N[C@@H](CO)C(=O)N[C@@H](CC(N)=O)C(=O)N[C@H](C(=O)N1C[C@H](O)C[C@H]1C(N)=O)[C@@H](C)O)C(C)C)[C@@H](C)O [PD088] (H-RCNTATCATQRLADFLRHSSNK([γGlu-C18 diacid])LGPILPPTNVGSNT[Hyp]-NH2; disulfide 2-7 (inferred); N-terminus assumed) |
| 10.72 | Clear | Clear | 99.86 | CC[C@H](C)[C@H](NC(=O)[C@@H]1CCCN1C(=O)CNC(=O)[C@H](CC(C)C)NC(=O)[C@H](CC(N)=O)NC(=O)[C@H](CCCCNC(=O)COCCOCCNC(=O)COCCOCCNC(=O)CC[C@H](NC(=O)CCCCCCCCCCCCCCCCC(=O)O)C(=O)O)NC(=O)[C@H](CO)NC(=O)[C@H](CO)NC(=O)[C@H](Cc1c[nH]cn1)NC(=O)[C@H](CCCNC(=N)N)NC(=O)[C@H](CC(C)C)NC(=O)[C@H](Cc1ccccc1)NC(=O)[C@H](CC(=O)O)NC(=O)[C@H](C)NC(=O)[C@H](CC(C)C)NC(=O)[C@H](CCCNC(=N)N)NC(=O)[C@H](CCC(N)=O)NC(=O)[C@@H](NC(=O)[C@H](C)NC(=O)[C@@H]1CSSC[C@H](NC(=O)[C@@H](N)CCCNC(=N)N)C(=O)N[C@@H](CC(N)=O)C(=O)N[C@@H]([C@@H](C)O)C(=O)N[C@@H](C)C(=O)N[C@@H]([C@@H](C)O)C(=O)N1)[C@@H](C)O)C(=O)N[C@@H](CC(C)C)C(=O)N1CCC[C@H]1C(=O)N1CCC[C@H]1C(=O)N[C@H](C(=O)N[C@@H](CC(N)=O)C(=O)N[C@H](C(=O)NCC(=O)N[C@@H](CO)C(=O)N[C@@H](CC(N)=O)C(=O)N[C@H](C(=O)N1C[C@H](O)C[C@H]1C(N)=O)[C@@H](C)O)C(C)C)[C@@H](C)O [PD093] (H-RCNTATCATQRLADFLRHSSK([AEEA-AEEA-γGlu-C18 diacid])NLGPILPPTNVGSNT[Hyp]-NH2; disulfide 2-7 (inferred); N-terminus assumed) |
| 10.47 | Clear | Clear | 102.94 | CC[C@H](C)[C@H](NC(=O)[C@@H]1CCCN1C(=O)CNC(=O)[C@H](CC(C)C)NC(=O)[C@H](CC(N)=O)NC(=O)[C@H](CC(N)=O)NC(=O)[C@H](CCCCNC(=O)CC[C@H](NC(=O)CCCCCCCCCCCCCCCCCCC(=O)O)C(=O)O)NC(=O)[C@H](CO)NC(=O)[C@H](Cc1c[nH]cn1)NC(=O)[C@H](CCCNC(=N)N)NC(=O)[C@H](CC(C)C)NC(=O)[C@H](Cc1ccccc1)NC(=O)[C@H](CC(=O)O)NC(=O)[C@H](C)NC(=O)[C@H](CC(C)C)NC(=O)[C@H](CCCNC(=N)N)NC(=O)[C@H](CCC(N)=O)NC(=O)[C@@H](NC(=O)[C@H](C)NC(=O)[C@@H]1CSSC[C@H](NC(=O)[C@@H](N)CCCNC(=N)N)C(=O)N[C@@H](CC(N)=O)C(=O)N[C@@H]([C@@H](C)O)C(=O)N[C@@H](C)C(=O)N[C@@H]([C@@H](C)O)C(=O)N1)[C@@H](C)O)C(=O)N[C@@H](CC(C)C)C(=O)N1CCC[C@H]1C(=O)N1CCC[C@H]1C(=O)N[C@H](C(=O)N[C@@H](CC(N)=O)C(=O)N[C@H](C(=O)NCC(=O)N[C@@H](CO)C(=O)N[C@@H](CC(N)=O)C(=O)N[C@H](C(=O)N1C[C@H](O)C[C@H]1C(N)=O)[C@@H](C)O)C(C)C)[C@@H](C)O [PD094] (H-RCNTATCATQRLADFLRHSK([γGlu-C20 diacid])NNLGPILPPTNVGSNT[Hyp]-NH2; disulfide 2-7 (inferred); N-terminus assumed) |
